Measured values from patent US20250339443A1, “METHOD FOR TREATING OR PREVENTING CALCIUM RELEASE-ACTIVATED CALCIUM CHANNEL OR DISCOIDIN DOMAIN RECEPTOR 2 RELATED DISORDERS OR CONDITIONS” (LumiSTAR Biotechnology, Inc., priority 2023, published 2025).

How the values were obtained:
[1] = target: CRAC channel (Homo sapiens, UniProt Q96D31); test: CRAC channel activity / SOCE in MRC5; type: cell-based; parameters: endogenous in cells; conditions: MRC5, 10 μM pretreatment 45 min
Experimental: (§1) Cells were co-treated with various compounds (10 μM) and TGF-β1 for 24 hours. Following this, cell lysates were harvested, and the protein expression was assessed by Western blot analysis. FIG. 3D depicts the examination of TGF-β1-induced fibronectin deposition and α-SMA expression in HCF treated with 10 μM of DMSO, BTP2, WRG-28, or Av through immunofluorescence staining. The images were captured using a confocal microscope, the Olympus FV-1000. FIG. 3E, FIG. 3F, and FIG. 3G illustrate the assessment of CRAC channel activity in HCF, MRC5, and rat HSC-T6. These cells were pretreated with 10 μM of BTP2, WRG-28, or Av for 45 min. The evaluation included measuring the second peak of each calcium wave and the rate of entry. Each bar within the figure represents the mean value derived from 77 to 91 cells for HCF, 31 to 49 cells for MRC5, and 43 to 94 cells for HSC-T6. In all the graphs, *, **, and *** denote p-values of <0.05, 0.01, and 0.001, respectively.
Cells cultured on a glass-bottom 96 well plate for 48 hours were treated with different compounds (10 μM) and Fura 2-AM (1 μM) simultaneously in a solution containing 145 mM NaCl, 2.8 mM KCl, 2 mM CaCl2, 2 mM MgCl2, 10 mM D-glucose, 10 mM HEPES, pH 7.4 for 40 minutes in the dark. […] All the images were analyzed by using IGOR Pro software. […]

[2] = tested on: NRK49F cells; test: Collagen alignment assay in FITC-conjugated collagen gel; type: cell-based, rat; conditions: 10 ng/ml TGF-β1, 10 μM, 5 days
Experimental: (§2) FIG. 2A, FIG. 2B, FIG. 2C, FIG. 2D, FIG. 2E, FIG. 2F, FIG. 2G-1, and FIG. 2G-2 display how WRG-28 and Av suppress TGF-β1-induced fibroblasts activation and the differentiation of pericytes into myofibroblasts. […] Each bar represents the mean #SEM. […] The protein levels of collagen 1a1 and α-SMA were assessed using Western blot analysis under various conditions. […] Each bar represents mean±SEM. […] The images were acquired using a confocal microscope (Olympus, MPE). FIG. 2G-1 and FIG. 2G-2 display the measurement of angles between collagen fibers and the cell membrane, conducted using Image J. At least five different images from each condition were analyzed. Each bar represents mean±SEM. In all graphs, *, **, and *** represent p-value <0.05, 0.01, and 0.001, respectively. ‘ns’ denotes p-value >0.05, indicating no significant difference.
FITC-conjugated collagen was used to make collagen gel and cells were grown in the gel for 5 days. After that cells were fixed with 4% paraformaldehyde and phalloidin-TRICT was used as counterstaining in the evaluation of the cell body. The angles between fibers and cell membrane were measured by image J.
The alignment of the extracellular matrix (ECM) is a unique characteristic of myofibroblasts, altering the physical properties of the tissue microenvironment and posing a threat to tissue homeostasis during organ fibrosis. […]

[3] = tested on: rat hepatic stellate cells (HSC-T6); test: TGF-β1-induced activation of rat hepatic stellate cells (Western blot); type: cell-based; conditions: HSC-T6, 10 μM co-treatment, 24 hours
Experimental: as §1, with “Each bar within the figure represents the mean value derived from 77 to 91 cells for HCF, 31 to 49 cells for MRC5, and 43 to 94 cells for HSC-T6. In all the graphs, *, **, and *** denote p-values of <0.05, 0.01, and 0.001, respectively.” left out
(§3) Cell lysates were harvested in RIPA buffer (150 mM NaCl, 1 mM EGTA, 50 mM Tris pH 7.4, 10% glycerol, 1% Triton X-100, 1% sodium deoxycholate, 0.1% SDS, and protease inhibitor cocktail) and collected from culture dish with cell scrapers. […] The protein expression levels were assessed by specific primary antibodies, including antibodies against phosphotyrosine (clone 4G10; Millipore), DDR2 (R&D), α-SMA (Sigma), Collagen 1a1 (Boster), E-cadherin (BD Biosciences), SGLT2 (Proteintech), NHE1 (Novus) and β-actin (Clone C4, Millipore), followed by incubating with secondary antibodies conjugated with HRP and detected by ECL kit (Thermo Scientific). […]

[4] = tested on: CCL-226 cells; test: TGF-β1-induced pericyte-to-myofibroblast activation (Western blot); type: cell-based, mouse; conditions: CCL-226, 10 μM, 24 hours
Experimental: as §2, with “In all graphs, *, **, and *** represent p-value <0.05, 0.01, and 0.001, respectively. ‘ns’ denotes p-value >0.05, indicating no significant difference.” left out
as §3

Chain of CRAC channel (Q96D31 whole entry): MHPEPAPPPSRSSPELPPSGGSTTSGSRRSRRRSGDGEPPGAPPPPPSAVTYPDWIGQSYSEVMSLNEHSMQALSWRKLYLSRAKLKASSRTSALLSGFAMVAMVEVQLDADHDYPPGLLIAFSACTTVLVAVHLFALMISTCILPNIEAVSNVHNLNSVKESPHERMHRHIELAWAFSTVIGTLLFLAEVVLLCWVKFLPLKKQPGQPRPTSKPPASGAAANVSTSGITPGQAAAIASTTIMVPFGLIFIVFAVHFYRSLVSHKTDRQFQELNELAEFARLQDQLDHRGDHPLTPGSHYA

SMILES	SOCE [1]	TGF-β1-induced collagen alignment [2]	upregulation of α-SMA induced by TGF-β1 [3]	TGF-β1-induced upregulation of collagen 1a1 and α-SMA in pericyte [4]
CCNS(=O)(=O)c1ccc(COc2ccc3nc4ccc(=O)cc-4oc3c2)cc1 [WRG-28]	notably reduced	reduced	suppressed	significantly suppressed
Cc1nnsc1C(=O)Nc1ccc(-n2nc(C(F)(F)F)cc2C(F)(F)F)cc1 [BTP2]	–	reduced	suppressed	significantly suppressed
